Where a name gives a salt, the structure may show the parent alone. Read-outs that look alike come from different tables or passages of the source.

Series [1] deals with IL-8 production by human neutrophils. Briefly: TNF-stimulated IL-8 production from human neutrophils. In kind it is cell-based. The note with it: Neutrophil, bound, read-out: IC50.
Series [2] concerns influx of neutrophils to the lung in LPS-challenged rats. Put plainly: Rat LPS neutrophilia model. The series is classed as in vivo. As to conditions: LPS aerosol, lavage 4 hours later, in at least one of the range of conditions tested, significance p<0.05. Put shortly:
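Rats pretreated 15 min–24 h with compound or vehicle, given intratracheally (200 ul, isoflurane anaesthesia) as suspension in various vehicles, then exposed to LPS aerosol (100 ug/ml) 15 min. BAL 4 h later; Diffquick-stained differential counts give % inhibition of neutrophils versus no-compound controls at a set concentration and pretreatment time.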

In the next series the target is T1, Recombinant human p38α (Homo sapiens, UniProt Q16539).
T1 construct: GST; made in house
T1 sequence (Q16539 whole entry): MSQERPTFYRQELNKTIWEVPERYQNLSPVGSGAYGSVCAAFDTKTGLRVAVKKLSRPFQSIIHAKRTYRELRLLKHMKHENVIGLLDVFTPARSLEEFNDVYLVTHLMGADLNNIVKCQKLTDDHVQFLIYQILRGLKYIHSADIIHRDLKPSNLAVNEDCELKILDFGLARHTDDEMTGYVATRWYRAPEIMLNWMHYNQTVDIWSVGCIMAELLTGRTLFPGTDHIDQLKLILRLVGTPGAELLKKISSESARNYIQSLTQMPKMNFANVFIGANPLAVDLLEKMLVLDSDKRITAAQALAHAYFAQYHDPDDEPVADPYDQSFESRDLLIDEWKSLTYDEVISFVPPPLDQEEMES
Put plainly: Fluorescence anisotropy kinase binding assay (standard or low volume). Put shortly: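 Activated GST-tagged recombinant human p38α (pre-activated with MBP-MKK6 DD) at 12 nM final with 5 nM rhodamine green-labelled pyridinylimidazole tracer in pH 7.5 HEPES/CHAPS/DTT/MgCl2 buffer. Test compound 0.28 nM–16.6 μM or 0.02 nM–25 μM final, 3% or 1.7% DMSO; 30–60 min at room temperature. Fluorescence anisotropy read (ex 485/em 535 nm) for Ki.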

[3] abbreviates: second end given as 'less than', read-out: pIC50, broad range of data upon multiple runs (converted).
Where [4] appears, read: not more than 50% inhibition at 100 nM.
[5] abbreviates: bound, read-out: apparent pIC50 (converted).

`Cc1ccc(NC(=O)c2ccsc2)cc1-c1nc(N(C)C)nc2c1CNC(=O)N2c1c(F)cccc1F` [Example 12, N-{3-[8-(2,6-difluorophenyl)-2-(dimethylamino)-7-oxo-5,6,7,8-tetrahydropyrimido[4,5-d]pyrimidin-4-yl]-4-methylphenyl}-3-thiophenecarboxamide] displayed a melting point of 214 to 215 °C.

`CCOc1nc(-c2cc(NC(=O)c3ccsc3)ccc2C)c2c(n1)N(c1c(F)cccc1F)C(=O)NC2` [Example 13]: the melting point was 199 to 202 °C (dec.).

Turning to `CNc1nc(-c2cc(NC(=O)c3ccsc3)ccc2C)c2c(n1)N(c1c(F)cccc1F)C(=O)NC2` [Example 14, N-{3-[8-(2,6-difluorophenyl)-2-(methylamino)-7-oxo-5,6,7,8-tetrahydropyrimido[4,5-d]pyrimidin-4-yl]-4-methylphenyl}-3-thiophenecarboxamide], the melting point was 203 to 207 °C (dec.).

As for `Cc1ccc(C(=O)NC(C)C)cc1-c1nc(N2CCC(N3CCN(C)CC3)CC2)nc2c1CNC(=O)N2c1c(F)cccc1F` [Example 72, 3-{8-(2,6-difluorophenyl)-2-[4-(4-methyl-1-piperazinyl)-1-piperidinyl]-7-oxo-5,6,7,8-tetrahydropyrimido[4,5-d]pyrimidin-4-yl}-4-methyl-N-(1-methylethyl)benzamide], the IC50 in series [1] (screened at a different top concentration) is > 1 nM. Besides, the inhibition of neutrophilia result in series [2] is recorded as “statistically significant inhibition of neutrophilia”.

As for `Cc1ccc(C(=O)NC(C)C)cc1-c1nc(N2CCN(C(c3ccccc3)c3ccccc3)CC2)nc2c1CNC(=O)N2c1c(F)cccc1F` [Example 84, 3-{8-(2,6-difluorophenyl)-2-[4-(diphenylmethyl)-1-piperazinyl]-7-oxo-5,6,7,8-tetrahydropyrimido[4,5-d]pyrimidin-4-yl}-4-methyl-N-(1-methylethyl)benzamide trifluoroacetate], the IC50 at Recombinant human p38α (setting [3]) is > 1780 nM; in series [1] (setting [4]), > 100 nM.

For the molecule `CCCNC(=O)c1ccc(-c2nc(NCCN(C)C)nc3c2CNC(=O)N3c2c(F)cccc2F)cc1` [Example 98, 4-(8-(2,6-difluorophenyl)-2-{[2-(dimethylamino)ethyl]amino}-7-oxo-5,6,7,8-tetrahydropyrimido[4,5-d]pyrimidin-4-yl)-N-propylbenzamide trifluoroacetate], the IC50 on Recombinant human p38α (setting [5]) is > 15800 nM; in series [1] (setting [4]), > 100 nM.

With `CN(C)CCNc1nc(-c2ccc(C(=O)Nc3ccccc3)cc2)c2c(n1)N(c1c(F)cccc1F)C(=O)NC2` [Example 99, 4-(8-(2,6-difluorophenyl)-2-{[2-(dimethylamino)ethyl]amino}-7-oxo-5,6,7,8-tetrahydropyrimido[4,5-d]-pyrimidin-4-yl)-N-phenylbenzamide trifluoroacetate], the figures for the IC50 (at Recombinant human p38α (setting [3]); in series [1] (setting [4])) were ≥ 1260 nM and > 100 nM, respectively.

In the case of `CN(C)CCNc1nc(-c2ccc(C(=O)Nc3ccc(F)cc3)cc2)c2c(n1)N(c1c(F)cccc1F)C(=O)NC2` [Example 100, 4-(8-(2,6-difluorophenyl)-2-{[2-(dimethylamino)ethyl]amino}-7-oxo-5,6,7,8-tetrahydropyrimido[4,5-d]pyrimidin-4-yl)-N-(4-fluorophenyl)benzamide trifluoroacetate], the IC50 was > 15800 nM at Recombinant human p38α (setting [5]) and > 100 nM in series [1] (setting [4]).

Take `CN(C)CCNc1nc(-c2ccc(C(=O)N(C)C)cc2)c2c(n1)N(c1c(F)cccc1F)C(=O)NC2` [Example 101, 4-(8-(2,6-difluorophenyl)-2-{[2-(dimethylamino)ethyl]amino}-7-oxo-5,6,7,8-tetrahydropyrimido[4,5-d]pyrimidin-4-yl)-N,N-dimethylbenzamide trifluoroacetate]: the IC50 is > 15800 nM on Recombinant human p38α (setting [5]) and > 100 nM in series [1] (setting [4]).

In the case of `CN(C)CCNc1nc(-c2ccc(C(N)=O)cc2)c2c(n1)N(c1c(F)cccc1F)C(=O)NC2` [Example 103, 4-(8-(2,6-difluorophenyl)-2-{[2-(dimethylamino)ethyl]amino}-7-oxo-5,6,7,8-tetrahydropyrimido[4,5-d]pyrimidin-4-yl)benzamide trifluoroacetate], the IC50 was > 15800 nM at Recombinant human p38α (setting [5]) and > 100 nM in series [1] (setting [4]).

(Values after patent US20090239846A1, “Novel Compounds” (Glaxo Group Limited, priority 2005, published 2009).)
